Read-outs that look alike come from different tables or passages of the source. Blank lines part the entries; values can stand above or below the molecule they belong to.
How the values were obtained:
CHK a (CHKA) = CHK a (CHKA) (Homo sapiens, UniProt P35790); assay: Lipid kinase screening (ADP-Glo), CHKA; type: biochemical
Description: (§1) The lipid kinase screening for ICL-CCIC-0019, CK14, CK145 (5), CK146 (4) and CK147 (8) (testing concentration for all compounds: 10 μM) was performed by MRC PPU International Centre for Kinase Profiling (Dundee, UK). The lipid kinase screening panel includes 15 human recombinant lipid kinases and the tests used Promega ADP Glo^TM High Throughput Assay kit (Promega, Southampton, UK). For each assay, reference compounds were used as quality control. Finally, mean percentage activity inhibited by compounds and standard deviation for all the repeats were calculated.

DGK b = DGK b (Homo sapiens, UniProt Q9Y6T7); assay: Lipid kinase screening (ADP-Glo), DGK b; type: biochemical
Description: as §1

PI3K g = PI3K g (Homo sapiens, UniProt P48736); assay: Lipid kinase screening (ADP-Glo), PI3K g; type: biochemical
PI3K g, sequence (P48736 whole entry): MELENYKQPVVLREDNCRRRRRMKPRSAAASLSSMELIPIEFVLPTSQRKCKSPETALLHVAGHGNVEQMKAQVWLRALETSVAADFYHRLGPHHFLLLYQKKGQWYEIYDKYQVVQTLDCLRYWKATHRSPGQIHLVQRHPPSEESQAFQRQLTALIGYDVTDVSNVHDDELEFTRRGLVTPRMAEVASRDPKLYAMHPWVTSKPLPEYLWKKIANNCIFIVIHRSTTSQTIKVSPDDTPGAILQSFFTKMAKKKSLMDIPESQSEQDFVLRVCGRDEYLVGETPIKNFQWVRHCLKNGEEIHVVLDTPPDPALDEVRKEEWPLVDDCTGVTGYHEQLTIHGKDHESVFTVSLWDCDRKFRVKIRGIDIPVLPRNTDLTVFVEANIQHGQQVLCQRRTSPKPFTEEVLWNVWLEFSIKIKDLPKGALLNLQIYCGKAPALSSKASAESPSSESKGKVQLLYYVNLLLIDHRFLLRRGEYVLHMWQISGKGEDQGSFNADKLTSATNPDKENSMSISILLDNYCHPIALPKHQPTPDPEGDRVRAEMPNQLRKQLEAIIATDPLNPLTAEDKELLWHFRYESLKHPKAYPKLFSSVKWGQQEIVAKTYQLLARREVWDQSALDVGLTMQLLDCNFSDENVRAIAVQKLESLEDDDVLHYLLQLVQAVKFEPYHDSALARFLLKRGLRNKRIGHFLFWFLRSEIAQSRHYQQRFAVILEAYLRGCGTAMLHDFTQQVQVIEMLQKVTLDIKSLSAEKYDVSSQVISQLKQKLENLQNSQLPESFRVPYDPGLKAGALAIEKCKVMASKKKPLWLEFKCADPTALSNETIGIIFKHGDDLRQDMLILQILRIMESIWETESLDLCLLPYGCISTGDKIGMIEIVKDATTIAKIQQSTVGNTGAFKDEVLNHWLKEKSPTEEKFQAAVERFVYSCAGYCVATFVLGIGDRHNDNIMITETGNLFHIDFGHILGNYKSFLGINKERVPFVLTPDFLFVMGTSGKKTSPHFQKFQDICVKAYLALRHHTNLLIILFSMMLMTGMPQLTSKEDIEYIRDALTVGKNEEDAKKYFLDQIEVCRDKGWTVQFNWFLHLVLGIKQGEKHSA
Description: as §1

PIP5K2A = target: T1, PIP5K2A (Homo sapiens, UniProt P48426); assay: Lipid kinase screening (ADP-Glo), PIP5K2A; type: biochemical
T1 sequence (P48426 1-406): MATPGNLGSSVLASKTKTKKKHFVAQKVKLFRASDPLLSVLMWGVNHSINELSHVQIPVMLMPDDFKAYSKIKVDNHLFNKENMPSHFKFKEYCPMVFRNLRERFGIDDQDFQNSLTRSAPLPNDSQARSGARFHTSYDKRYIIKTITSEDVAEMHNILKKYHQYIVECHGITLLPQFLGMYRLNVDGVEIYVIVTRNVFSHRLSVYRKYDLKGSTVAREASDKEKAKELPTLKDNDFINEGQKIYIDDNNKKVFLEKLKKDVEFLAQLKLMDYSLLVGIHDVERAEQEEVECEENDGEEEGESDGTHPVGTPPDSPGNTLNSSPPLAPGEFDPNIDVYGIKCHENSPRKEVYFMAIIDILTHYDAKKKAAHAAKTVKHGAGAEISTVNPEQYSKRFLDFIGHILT
Description: as §1

DGK g = DGK g (Homo sapiens, UniProt P49619); assay: Lipid kinase screening (ADP-Glo), DGK g; type: biochemical
Description: as §1

[1] = Caco-2 permeability and efflux study; type: in vitro ADME, human
Description: (§2) The ADME study for ICL-CCIC-0019, CK14, CK145 (5), CK146 (4) and CK147 (8) was performed by Charles River Drug Discovery Services (Essex, UK).
(§3) The predicted in vitro pharmacokinetic characteristics of compounds were evaluated by four ADME assays, namely kinetic solubility assay, metabolic stability assay using human liver microsome S9, permeability and efflux study using the Caco-2 cell line, and matrix stability assay using fasted state simulated gastric fluid (FaSSGF). All tested CHKA inhibitors were highly soluble (>150 μM) in 0.1 M PBS (2% DMSO) (Table 1). […] The in vivo clearance was calculated to predict the actual clearance in humans by scaling the clearance values, which takes into account liver weight, microsomes per liver and liver blood flow. […] In Caco-2 cell permeability assay, drug permeability was investigated and presented as apparent permeability coefficients (Papp) in A to B (A-B, apical to basolateral direction) and B to A (B-A, basolateral to apical direction).

[2] = target: phosphatidylinositol 4-kinase beta (PIK4CB) (Homo sapiens, UniProt Q9UBF8); assay: Lipid kinase screening (ADP-Glo), PIK4CB; type: biochemical
phosphatidylinositol 4-kinase beta (PIK4CB), sequence (Q9UBF8 whole entry): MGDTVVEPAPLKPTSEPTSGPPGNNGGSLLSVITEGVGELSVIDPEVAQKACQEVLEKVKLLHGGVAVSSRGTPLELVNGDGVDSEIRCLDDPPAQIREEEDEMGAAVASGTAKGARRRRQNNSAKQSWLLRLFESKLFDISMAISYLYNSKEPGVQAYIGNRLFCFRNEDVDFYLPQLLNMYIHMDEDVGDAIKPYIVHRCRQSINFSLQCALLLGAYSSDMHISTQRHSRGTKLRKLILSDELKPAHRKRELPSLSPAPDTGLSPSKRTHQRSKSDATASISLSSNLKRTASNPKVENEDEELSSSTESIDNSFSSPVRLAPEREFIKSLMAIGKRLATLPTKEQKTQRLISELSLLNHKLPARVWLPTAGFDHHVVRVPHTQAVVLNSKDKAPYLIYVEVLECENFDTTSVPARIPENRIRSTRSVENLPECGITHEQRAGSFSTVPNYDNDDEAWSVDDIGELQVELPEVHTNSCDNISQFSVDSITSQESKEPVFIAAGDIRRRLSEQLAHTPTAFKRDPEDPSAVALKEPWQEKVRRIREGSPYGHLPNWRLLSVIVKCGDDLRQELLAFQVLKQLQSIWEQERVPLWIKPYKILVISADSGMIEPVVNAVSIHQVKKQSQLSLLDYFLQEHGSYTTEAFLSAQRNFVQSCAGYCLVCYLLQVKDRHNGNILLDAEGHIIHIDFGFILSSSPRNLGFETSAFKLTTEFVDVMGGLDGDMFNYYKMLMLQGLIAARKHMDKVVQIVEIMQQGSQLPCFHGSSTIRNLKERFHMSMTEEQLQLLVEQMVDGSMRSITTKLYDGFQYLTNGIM
Description: as §1

SPHK1 = SPHK1 (Homo sapiens, UniProt Q9NYA1); assay: Lipid kinase screening (ADP-Glo), SPHK1; type: biochemical
Description: as §1

[3] = test system: [18F]D4-FCH uptake in C4-2B cells; assay: [18F]D4-FCH uptake in vitro study, C4-2B; type: cell-based; details: Homo sapiens
Description: HCT-116 and C4-2B cells were seeded at a density of 5 × 10^5 cells per well into 6-well plates and incubated overnight. Cells were treated with 1 or 10 µM CHKA inhibitors (CK14, CK145, CK146 and CK147) for 1 h and pulsed with [^18F]D4-FCH (740 kBq) in presence of inhibitors in 1 mL for an additional hour at 37 °C. Cells were washed with ice-cold PBS three times and lysed in 1 mL RIPA buffer. The radioactivity of 800 µL lysate from each well was counted on a gamma counter (Perkin Elmer, Beaconsfield, UK) and normalized to protein content as determined by BCA assay.

PI4K2a = PI4K2a (Homo sapiens, UniProt Q9BTU6); assay: Lipid kinase screening (ADP-Glo), PI4K2a; type: biochemical
PI4K2a, sequence (Q9BTU6 whole entry): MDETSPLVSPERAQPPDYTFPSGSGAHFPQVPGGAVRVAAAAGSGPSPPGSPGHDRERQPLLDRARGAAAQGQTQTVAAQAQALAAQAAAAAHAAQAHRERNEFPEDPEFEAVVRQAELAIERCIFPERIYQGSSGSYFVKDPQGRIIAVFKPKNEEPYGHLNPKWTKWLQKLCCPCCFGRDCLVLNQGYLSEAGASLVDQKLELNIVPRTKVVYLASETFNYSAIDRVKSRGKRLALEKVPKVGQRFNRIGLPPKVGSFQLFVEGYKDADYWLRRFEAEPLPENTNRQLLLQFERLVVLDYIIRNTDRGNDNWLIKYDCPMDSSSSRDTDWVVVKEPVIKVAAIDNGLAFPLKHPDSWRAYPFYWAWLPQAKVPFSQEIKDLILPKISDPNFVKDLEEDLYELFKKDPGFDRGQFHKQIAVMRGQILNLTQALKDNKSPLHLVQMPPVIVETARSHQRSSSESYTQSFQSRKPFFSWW
Description: as §1

PI3K b = PI3K b (Homo sapiens, UniProt P42338); assay: Lipid kinase screening (ADP-Glo), PI3K b; type: biochemical
Description: as §1

A549 = details: cited from earlier work
SPHK2 = target: T2, SPHK2 (Homo sapiens, UniProt Q9NRA0); assay: Lipid kinase screening (ADP-Glo), SPHK2; type: biochemical
T2 sequence (Q9NRA0 1-654): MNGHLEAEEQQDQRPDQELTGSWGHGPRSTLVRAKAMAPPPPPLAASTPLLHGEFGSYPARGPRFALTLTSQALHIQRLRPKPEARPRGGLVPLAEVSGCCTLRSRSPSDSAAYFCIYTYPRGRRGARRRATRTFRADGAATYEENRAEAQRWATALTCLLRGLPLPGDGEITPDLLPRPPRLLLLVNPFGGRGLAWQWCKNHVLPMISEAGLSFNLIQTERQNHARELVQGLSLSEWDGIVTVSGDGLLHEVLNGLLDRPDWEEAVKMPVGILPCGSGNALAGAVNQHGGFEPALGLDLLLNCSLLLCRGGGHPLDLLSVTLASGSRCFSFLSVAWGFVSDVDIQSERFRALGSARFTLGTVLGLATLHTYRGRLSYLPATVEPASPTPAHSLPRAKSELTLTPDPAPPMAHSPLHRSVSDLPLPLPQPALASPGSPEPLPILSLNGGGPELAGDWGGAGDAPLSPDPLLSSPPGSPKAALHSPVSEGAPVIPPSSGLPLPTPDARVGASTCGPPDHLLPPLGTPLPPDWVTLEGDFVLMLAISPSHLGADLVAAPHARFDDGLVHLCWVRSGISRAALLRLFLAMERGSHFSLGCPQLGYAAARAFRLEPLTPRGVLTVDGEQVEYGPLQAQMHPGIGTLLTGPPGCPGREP
Description: as §1

PI3K a = PI3K a (Homo sapiens, UniProt P42336); assay: Lipid kinase screening (ADP-Glo), PI3K a; type: biochemical
Description: as §1

[4] = Matrix stability assay in fasted state simulated gastric fluid (FaSSGF); type: in vitro ADME; details: for half-life: pH 1.6
Description: as §2, §3

PI3Ka E524K + p85 = assay: Lipid kinase screening (ADP-Glo), PI3Ka E524K + p85; type: biochemical, human; details: 10 μM
Description: as §1

PI3Ka E545K + p85 = PI3Ka E545K + p85 (Homo sapiens, UniProt P42336, E545K); assay: Lipid kinase screening (ADP-Glo), PI3Ka E545K + p85; type: biochemical
PI3Ka E545K + p85, sequence (P42336 whole entry E545K): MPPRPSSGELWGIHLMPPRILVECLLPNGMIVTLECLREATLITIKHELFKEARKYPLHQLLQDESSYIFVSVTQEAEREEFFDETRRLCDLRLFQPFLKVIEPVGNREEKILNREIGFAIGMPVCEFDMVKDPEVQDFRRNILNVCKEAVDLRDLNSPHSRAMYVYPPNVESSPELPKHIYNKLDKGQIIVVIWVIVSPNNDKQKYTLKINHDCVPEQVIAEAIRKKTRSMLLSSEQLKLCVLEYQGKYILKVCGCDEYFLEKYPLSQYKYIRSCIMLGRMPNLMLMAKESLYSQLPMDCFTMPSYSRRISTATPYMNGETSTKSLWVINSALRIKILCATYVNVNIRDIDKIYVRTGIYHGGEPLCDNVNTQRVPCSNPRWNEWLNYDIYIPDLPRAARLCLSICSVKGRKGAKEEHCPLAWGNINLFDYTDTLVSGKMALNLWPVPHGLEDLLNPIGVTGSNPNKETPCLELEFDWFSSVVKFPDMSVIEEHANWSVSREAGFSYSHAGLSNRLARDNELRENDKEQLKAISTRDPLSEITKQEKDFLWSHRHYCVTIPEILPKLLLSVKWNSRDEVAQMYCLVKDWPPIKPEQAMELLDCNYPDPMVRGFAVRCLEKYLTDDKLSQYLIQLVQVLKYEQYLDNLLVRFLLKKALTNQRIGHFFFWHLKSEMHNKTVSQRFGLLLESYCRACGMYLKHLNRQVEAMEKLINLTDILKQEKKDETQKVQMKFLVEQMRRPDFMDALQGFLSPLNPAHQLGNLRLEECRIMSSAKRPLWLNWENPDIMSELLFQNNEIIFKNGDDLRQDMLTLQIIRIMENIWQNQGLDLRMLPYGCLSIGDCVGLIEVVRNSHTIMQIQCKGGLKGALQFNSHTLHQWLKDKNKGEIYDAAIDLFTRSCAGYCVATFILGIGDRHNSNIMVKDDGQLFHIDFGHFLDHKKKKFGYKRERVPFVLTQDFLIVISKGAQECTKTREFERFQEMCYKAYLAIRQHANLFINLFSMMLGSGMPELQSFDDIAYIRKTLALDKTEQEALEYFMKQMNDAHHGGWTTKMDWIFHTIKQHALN
PI3Ka E545K + p85, sequence (P27986 whole entry partner): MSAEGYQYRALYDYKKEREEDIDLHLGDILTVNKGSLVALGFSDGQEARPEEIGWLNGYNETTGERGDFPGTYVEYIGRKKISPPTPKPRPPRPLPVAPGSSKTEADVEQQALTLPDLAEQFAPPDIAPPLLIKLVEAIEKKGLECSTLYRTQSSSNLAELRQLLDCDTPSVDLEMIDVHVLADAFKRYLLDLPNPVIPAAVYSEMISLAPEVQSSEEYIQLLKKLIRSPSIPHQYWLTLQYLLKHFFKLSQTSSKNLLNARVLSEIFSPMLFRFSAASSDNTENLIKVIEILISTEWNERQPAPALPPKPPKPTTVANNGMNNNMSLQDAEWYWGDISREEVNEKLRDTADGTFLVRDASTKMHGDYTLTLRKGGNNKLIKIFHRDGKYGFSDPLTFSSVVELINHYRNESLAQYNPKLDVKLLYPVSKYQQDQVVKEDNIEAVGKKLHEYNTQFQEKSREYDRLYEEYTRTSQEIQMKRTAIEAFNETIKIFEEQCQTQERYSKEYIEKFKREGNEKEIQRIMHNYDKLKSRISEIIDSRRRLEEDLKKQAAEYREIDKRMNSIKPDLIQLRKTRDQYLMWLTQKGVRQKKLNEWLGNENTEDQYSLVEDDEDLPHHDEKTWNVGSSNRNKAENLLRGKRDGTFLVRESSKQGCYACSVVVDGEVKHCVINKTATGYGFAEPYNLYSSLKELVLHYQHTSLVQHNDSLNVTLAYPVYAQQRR
Description: as §1

HCT-116 = details: cited from earlier work
Kinetic solubility assay = type: physicochemical; details: aqueous buffer, kinetic from dmso stock
Description: as §2, §3

CHK b (CHKB) = CHK b (CHKB) (Homo sapiens, UniProt Q9Y259); assay: Lipid kinase screening (ADP-Glo), CHKB; type: biochemical
CHK b (CHKB), sequence (Q9Y259 whole entry): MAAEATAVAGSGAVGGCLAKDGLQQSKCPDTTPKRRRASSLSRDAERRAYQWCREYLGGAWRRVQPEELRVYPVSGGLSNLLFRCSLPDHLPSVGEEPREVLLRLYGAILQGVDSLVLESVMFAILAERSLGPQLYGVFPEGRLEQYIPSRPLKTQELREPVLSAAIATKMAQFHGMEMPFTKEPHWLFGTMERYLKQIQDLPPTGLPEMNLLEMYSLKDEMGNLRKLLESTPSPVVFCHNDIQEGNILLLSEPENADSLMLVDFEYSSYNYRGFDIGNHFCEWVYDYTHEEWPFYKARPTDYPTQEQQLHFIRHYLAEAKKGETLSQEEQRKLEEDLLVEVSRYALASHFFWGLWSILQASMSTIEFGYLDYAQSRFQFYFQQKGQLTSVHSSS
Description: as §1

[5] = Human microsomal metabolic stability assay; type: in vitro ADME
Description: as §2, §3

[6] = test system: Δ49N CHKA2 (recombinant CHKA2); details: read-out: IC50 against recombinant CHKA2; cited from earlier work
DGK z = DGK z (Homo sapiens, UniProt Q13574); assay: Lipid kinase screening (ADP-Glo), DGK z; type: biochemical
Description: as §1

[7] = Conjugate stability test of CK147 in medium (HPLC); type: physicochemical; details: up to 72 h
Description: To assess stability of CK147 in medium, 5 mL of medium containing 10% FCS and 1% L-glutamine was added sterilely to a six-well plate. Next, 1.7 μL of 300 mM CK147 in DMSO or 1.7 μL DMSO was added into wells and the plate was gently shaken for 5 s before being incubated at 37 °C in a humidified atmosphere containing 5% CO2. After 0, 2, 4, 6, 24, 48 and 72 h, 200 μL aliquots of medium from each well were transferred into a 1.5-mL tube containing 198.4 μL acetonitrile and 1.6 μL of 2.5 mg/mL ICL-CCIC-0019 as an internal standard (IS) […]. […] One hundred microliters of the solution were injected into the HPLC system described in Supplementary HPLC method D. Three repeats were performed for each sample.

Caco-2 cell line = assay: Caco-2 permeability and efflux study; type: in vitro ADME, human; details: Caco-2
Description: as §2, §3

[8] = test system: C4-2B prostate cancer cells; assay: Cellular uptake and metabolism study in C4-2B with or without serum (HPLC); details: 50 μM, 4 h
Description: Cell lysate sample preparation: C4-2B prostate cancer cells were seeded into cell culture dishes (150 × 25 mm) at a density of 7 × 10^6 per dish. The cells were allowed to settle and grow for another 48 h. The cells were treated with ICL-CCIC-0019, CK146, CK147 and CK148 (50 μM of 7 mL RPMI medium with or without 10% FCS) for 4 h in the incubator. After 4-h incubation, the aliquots of medium were collected (see the medium sample preparation section). Cells were scraped, washed with ice-cold PBS three times and collected by centrifugation (4 °C, 4000× g). The cell pellets were resuspended in 500 μL of chilled acetonitrile:PBS (50:50, v/v) for cell disruption and homogenization. The cell disruption was performed by a Precellys® 24 homogenizer (Bertin Technologies, Montigny-le-Bretonneux, France) at 4 °C. After acetonitrile evaporation at room temperature, 50 μL of cell lysis was taken for protein analysis. Another 100 μL of the supernatant obtained after centrifuge (4 °C, 15,000× g) was resuspended in 100 μL formic acid:water (0.2%, v/v). Next, 100 μL of the filtered solution was analyzed by HPLC system described in Supplementary HPLC method D. Three injections were performed for each sample. Intracellular drug was normalized to cellular protein of each plate using BCA assay. Medium sample preparation for HPLC analysis: 250-μL aliquots of medium (with or without 10% FCS) were transferred into 1.5-mL tube containing 250 μL acetonitrile. After a brief vortex, the tube was placed at 4 °C for 30 min for protein precipitation. One hundred microliters of the resulting supernatant from centrifuge (4 °C, 15,000× g) were resuspended in 100 μL formic acid: water (0.2%, v/v). One hundred microliters of the filtered sample were analyzed by HPLC system described in Supplementary HPLC method D. Three injections were performed for each sample.

NIH3T3 = test system: NIH3T3; design: method as in PMID 22278967, PMID 9393874; details: cited from earlier work
SKBR3 = test system: SKBR3; design: method as in PMID 22278967, PMID 9393874; details: cited from earlier work
CHKA = test system: CHKA; design: method as in ref 18, 25 (HC-3), 20, 21 (MN58B), 23 (RSM-932A); details: CHKA inhibitors of Figure 1; 25 (HC-3), 20, 21 (MN58B), 23 (RSM-932A); cited from earlier work

CHK a (CHKA), sequence (P35790 whole entry): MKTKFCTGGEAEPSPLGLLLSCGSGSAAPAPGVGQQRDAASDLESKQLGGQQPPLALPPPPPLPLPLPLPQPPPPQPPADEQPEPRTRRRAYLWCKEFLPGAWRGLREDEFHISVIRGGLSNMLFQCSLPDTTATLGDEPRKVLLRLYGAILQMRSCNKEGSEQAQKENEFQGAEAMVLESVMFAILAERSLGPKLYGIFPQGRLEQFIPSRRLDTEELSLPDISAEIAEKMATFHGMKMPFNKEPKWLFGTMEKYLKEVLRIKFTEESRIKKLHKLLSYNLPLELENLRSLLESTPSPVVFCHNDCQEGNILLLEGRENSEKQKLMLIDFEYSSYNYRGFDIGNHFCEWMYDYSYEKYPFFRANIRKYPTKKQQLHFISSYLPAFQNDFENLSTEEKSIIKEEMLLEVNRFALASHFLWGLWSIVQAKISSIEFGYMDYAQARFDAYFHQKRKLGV

inhibition at 10 µM (CHK a (CHKA)): 77%
inhibition at 10 µM (DGK b): 11.9%
inhibition at 10 µM (PI3K g): 16.4%
inhibition at 10 µM (PIP5K2A): -2.7%
inhibition at 10 µM (DGK g): 12.8%
efflux ratio ([1]; human, Caco-2, read-out: Efflux ratio (Papp B-A/Papp A-B)): > 87
Papp A→B ([1]; human, Caco-2, apical to basolateral, read-out: Papp A-B): < 0.1 ×10⁻⁶ cm/s
Papp B→A ([1]; human, Caco-2, basolateral to apical, read-out: Papp B-A): 8.7 ×10⁻⁶ cm/s
inhibition at 10 µM [2]: -4.1%
inhibition at 10 µM (SPHK1): -10.1%
inhibition at 10 µM (PI4K2a): -48.8%
inhibition at 10 µM (PI3K b): -36.2%
inhibition at 10 µM (SPHK2): 16%
inhibition at 10 µM (PI3K a): -1.9%
Matrix Stability: Remaining % ([4]; FaSSGF): 95%
half-life ([4]; fasted state simulated gastric fluid (FaSSGF), fasted state simulated gastric fluid, read-out: FaSSGF stability Half-life (converted)): > 10 h
% Inhibition PI3Ka E524K + p85 (PI3Ka E524K + p85): 1.6%
inhibition at 10 µM (PI3Ka E545K + p85): -15.2%
solubility kinetic (Kinetic solubility assay; 0.1 M PBS (2% DMSO), read-out: Kinetic Solubility: Solubility): 154 µM
inhibition at 10 µM (CHK b (CHKB)): -33.7%
PCT_LBF % (percentage of compound removed compared to liver blood flow) ([5]; human): <45%
Human Microsomal Metabolic Stability: Remaining % ([5]; human liver microsome S9): 101%
microsomal CLint ([5]; human, human liver microsome S9, human liver microsome S9, read-out: Human Microsomal Metabolic Stability: Clint): < 14 µL/min/mg
half-life ([5]; human, human liver microsome S9, human liver microsome S9, read-out: Human Microsomal Metabolic Stability: Half-life): > 1.67 h
Predicted in vivo clearance ([5]; scaled from microsomal clearance (liver weight, microsomes per liver, liver blood flow), human): <10 mL/min/kg
inhibition at 10 µM (DGK z): 4.7%
Structure (SMILES): CN(C)c1cc[n+](CCCCCCCCCCCCCC[n+]2ccc(N(C)C)cc2)cc1.[Br-].[Br-] [CK14, reference compound]
inhibition at 1 µM ([3]; 1 μM, read-out: inhibition of [18F]D4-FCH uptake (mean of CK14, CK145 and CK146)): 46 ± 1%
inhibition at 10 µM ([3]; 10 μM): 93 ± 5%
GI50 (A549): 330 nM
GI50 (HCT-116): 290 nM
IC50 [6]: 150 nM

Structure (SMILES): CN(C)c1cc[n+](CCCCCCCCCCCCCC[n+]2ccc(N3CCN(C(=O)CSC4CC(=O)N(CCC(=O)NCCCCCC(=O)NCCCCC(NC(=O)NC(CCC(=O)O)C(=O)O)C(=O)O)C4=O)CC3)cc2)cc1 (centres unmarked) [CK147]
inhibition at 10 µM (CHK a (CHKA)): 13.1%
inhibition at 10 µM (DGK b): -4.9%
inhibition at 10 µM (PI3K g): 2.1%
inhibition at 10 µM (PIP5K2A): -1.5%
chemical decomposition in medium by HPLC/MS (in words) [7]: Chemical decomposition was not detected
inhibition at 10 µM (DGK g): -6.5%
Papp A→B ([1]; Caco-2): < 0.1 ×10⁻⁶ cm/s
Papp B→A ([1]; Caco-2): < 0.1 ×10⁻⁶ cm/s
Efflux ratio (Papp B-A/Papp A-B) (Caco-2 cell line): too poor to permit calculation of the efflux ratio
inhibition at 10 µM [2]: 0.5%
inhibition at 10 µM (SPHK1): -1%
inhibition at 10 µM (PI4K2a): 10.4%
inhibition at 10 µM (PI3K b): -0.1%
inhibition at 10 µM (SPHK2): -3.7%
inhibition at 10 µM (PI3K a): -2.6%
Matrix Stability: Remaining % ([4]; simulated gi fluid): 97%
half-life ([4]; simulated gi fluid): > 10 h
inhibition at 10 µM (PI3Ka E545K + p85): 22.8%
solubility kinetic (Kinetic solubility assay): 186 µM
inhibition at 10 µM (CHK b (CHKB)): 3.2%
PCT_LBF % (percentage of compound removed compared to liver blood flow) [5]: <45%
Predicted in vivo clearance [5]: <10 mL/min/kg
Human Microsomal Metabolic Stability: Remaining % ([5]; human): 105%
microsomal CLint ([5]; human, Human Microsomal Metabolic Stability: Clint): < 14 µL/min/mg
half-life ([5]; human, liver microsomes, Human Microsomal Metabolic Stability: Half-life): > 1.67 h
inhibition at 10 µM (DGK z): 4.7%

Structure (SMILES): CN(C)c1cc[n+](CCCCCCCCCCCCCC[n+]2ccc(N3CCN(C(=O)CSC4CC(=O)N(CCC(=O)NCCCCCC(=O)NCCCCC(NC(=O)NC(CCC(=O)OC(C)(C)C)C(=O)OC(C)(C)C)C(=O)OC(C)(C)C)C4=O)CC3)cc2)cc1 (centres unmarked) [CK148]
cellular uptake, mean ± SD of two experiment groups ([8]; FCS positive and negative groups): 42.5 ± 11.5 % μg^−1 protein
detection in cell lysates by HPLC (in words) ([8]; both FCS groups): detected

Structure (SMILES): C[N+]1(C)CCOC(O)(c2ccc(-c3ccc(C4(O)C[N+](C)(C)CCO4)cc3)cc2)C1 (centres unmarked) [HC-3, Hemicholinium-3]
GI50 (NIH3T3): 600000 nM
GI50 (SKBR3): > 500000 nM
IC50 (CHKA): 950 nM
